# US10655183B2, “Carcinoma diagnosis and treatment based on ODC1 genotype” (THE ARIZONA BOARD OF REGENTS ON BEHALF OF THE UNIVERSITY OF …, priority 2014, dated 2020)
# pIC50: −log10 of the molar value.
# Experiments:
# rat-tumor model = settings: DFMO infusion; cited from earlier work
# humans = settings: low doses of 0.4 g/m^2/day; cited from earlier work
# [1] = test system: ODC1 +263 G promoter/intron 1 luciferase plasmid; assay: ODC1 promoter/intron 1 luciferase reporter transfection in HCT116 cells; type: cell-based, human; settings: 2 μM NSC176327, 24 h, normalized to time-matched DMSO
# Experimental: (§1) HCT116 cells were transfected in 24-well plates. Cells were seeded at 0.1×10^6 cells/well 24 h prior transfection. Each well was transfected with 0.25 μg of each plasmid and 0.025 μg of Renilla-TK plasmid using 2.5 μL Lipofectamine 2000 reagent (Invitrogen) according to the manufacturer's instructions. The Renilla-TK plasmid was purchased from Promega and used as a transfection efficiency control in all promoter-reporter transfection experiments. For the overexpression experiments, ODC1 pGL3-Basic or Enhancer plasmids were co-transfected with the corresponding plasmid: pcDNA 3.0 empty vector, pcDNA3-c-MYC expression vector (Ricci et al., 2004) (Addgene plasmid 16011), full-length pN3-Sp1FL (Sapetschnig et al., 2004) (Addgene plasmid 24543), pN3-empty control (Addgene plasmid 24544), N-terminal mutate pPac-Sp1 (Courey and Tjian, 1988) (Addgene plasmid 12095) and pPac0 empty vector (Courey and Tjian, 1988) (Addgene plasmid 12094). After 5 h of transfection, the medium was replaced with fresh normal medium in the absence of antibiotics. […] Dual luciferase activities were measured using a Turner Designs TD-20/20 luminometer, as described by the manufacturer, and presented as relative luciferase units. Experiments were performed in triplicate, repeated at least twice, and analyzed for statistical significance (P<0.05) using two-sample t-tests (Microsoft Excel). […]
# [2] = test system: ODC1 +263 T promoter/intron 1 luciferase plasmid; assay: as above; type: cell-based, human; settings: 2 μM NSC176327, 24 h, normalized to time-matched DMSO
# Experimental: as §1
# [3] = test system: HCT116 colorectal cancer cells; assay: HCT116 24 h IC50 and cell viability; type: cell-based, human
# COX = settings: cited from earlier work
# [4] = test system: prostoglandin E2 (PGE2) levels in flat mucosa; settings: 300 mg/day, one month; cited from earlier work
# [5] = cited from earlier work
# patients = settings: human, in vivo; cited from earlier work
compound,measurement,setting,value
"NCCCC(N)(C(=O)O)C(F)F (racemic) [DFMO, 2-(difluoromethyl)-dl-ornithine]",decrease in tumor putrescine levels,rat-tumor model,90%
same,toxicity,humans,relatively non-toxic
COc1ccc2c(c1)c1c(C)c3cnccc3c(C)c1n2CCCN [NSC176327],reduction of ODC1-luciferase reporter expression,[1],43.6%
same,reduction of ODC1-luciferase reporter expression,[2],47.5%
same,pIC50,[3],5.70
CC1=C(CC(=O)O)c2cc(F)ccc2/C1=C\c1ccc(S(C)(=O)=O)cc1 [Sulindac sulfone],COX-inhibitory activity,COX,lacks COX-inhibitory activity
CC(C)Cc1ccc(C(C)C(=O)O)cc1 (centres unmarked) [ibuprofen],PGE2 levels in flat mucosa,[4],significant decrease
"CC1=C(CC(=O)O)c2cc(F)ccc2/C1=C\c1ccc([S+](C)[O-])cc1 (centres unmarked) [sulindac, (Z)-5-fluoro-2-methyl-1-((4 (methylsulfinyl)phenyl)methylene) 1H-indene-3-acetic acid]",fraction of the drug absorbed,[5]; oral administration,about 90%
same,time to peak plasma levels,"[5]; oral, fasting patients",about 2 h
same,patients with mild gastrointestinal effects,patients,~20%
same,patients with skin rash and pruritus,patients,5%
